Data: PubChem BioAssay AID330 (DTP/NCI, 2004)
Where “and” joins values, the source holds several entries; their conditions need not be identical. Identical values can stand only once. Inconclusive results and toxic doses are left out.

Tested on: P388 leukemia ip, CD2F1 mice, survival T/C
Experiment: NCI In Vivo Anticancer Drug Screen. Data for tumor model P388 Leukemia (intraperitoneal) in CD2F1 (CDF1) mice
Details: endpoint: median survival time, higher = longer survival
Outline: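 Mice carrying the transplanted tumor received test compound or vehicle. Survival was recorded in each group, and the value is the treated-group measurement divided by that of the vehicle-treated control group.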

[1] = dose: 50.0 mg/kg/injection, schedule: Q01DX005 (ip), vehicle: saline with Tween-80
[2] = dose: 100.0 mg/kg/injection, schedule: Q01DX005 (ip), vehicle: saline with Tween-80
[3] = dose: 200.0 mg/kg/injection, schedule: Q01DX005 (ip), vehicle: saline with Tween-80
[4] = dose: 60.0 mg/kg/injection, schedule: Q01DX005 (ip), vehicle: saline with Tween-80
[5] = dose: 120.0 mg/kg/injection, schedule: Q01DX005 (ip), vehicle: saline with Tween-80
[6] = dose: 240.0 mg/kg/injection, schedule: Q01DX005 (ip), vehicle: saline with Tween-80
[7] = dose: 50.0 mg/kg/injection, schedule: Q01DX009 (ip), vehicle: saline with Tween-80
[8] = dose: 100.0 mg/kg/injection, schedule: Q01DX009 (ip), vehicle: saline with Tween-80
[9] = dose: 100.0 mg/kg/injection, schedule: Q04DX003 (ip), vehicle: saline with Tween-80
[10] = dose: 200.0 mg/kg/injection, schedule: Q04DX003 (ip), vehicle: saline with Tween-80
[11] = dose: 400.0 mg/kg/injection, schedule: Q04DX003 (ip), vehicle: saline with Tween-80
[12] = dose: 100.0 mg/kg/injection, schedule: Q01DX001 (ip), vehicle: Klucel (hydroxypropylcellulose) (HPC)
[13] = dose: 200.0 mg/kg/injection, schedule: Q01DX001 (ip), vehicle: Klucel (hydroxypropylcellulose) (HPC)
[14] = dose: 400.0 mg/kg/injection, schedule: Q01DX001 (ip), vehicle: Klucel (hydroxypropylcellulose) (HPC)
[15] = dose: 50.0 mg/kg/injection, schedule: Q01DX009 (ip), vehicle: saline
[16] = dose: 12.5 mg/kg/injection, schedule: Q01DX009 (ip), vehicle: saline with Tween-80
[17] = dose: 25.0 mg/kg/injection, schedule: Q01DX009 (ip), vehicle: saline with Tween-80

SMILES: NC(Cc1c(Br)[nH]c2ccccc12)C(=O)O (configuration not stated)
- T/C [1]: 98 % of control
- T/C [2]: 103 % of control
- T/C [3]: 104 % of control

SMILES: N/C(=N\OC(=O)Nc1ccccc1)c1ccccc1
- T/C [4]: 97 % of control
- T/C [5]: 94 % of control
- T/C [6]: 91 % of control

SMILES: CC(C)C(=O)CC1(O)C(=O)Nc2ccc([N+](=O)[O-])cc21 (configuration not stated)
- T/C [4]: 101 % of control
- T/C [5]: 93 % of control
- T/C [6]: 91 % of control

SMILES: C=C1CCN(c2ccccc2Cl)C1=O
- T/C (dose: 4.0 mg/kg/injection, schedule: Q01DX009 (ip), vehicle: saline + alcohol): 100 % of control and 103 % of control and 109 % of control
- T/C (dose: 8.0 mg/kg/injection, schedule: Q01DX009 (ip), vehicle: saline + alcohol): 100 % of control and 104 % of control and 106 % of control
- T/C (dose: 16.0 mg/kg/injection, schedule: Q01DX009 (ip), vehicle: saline + alcohol): 100 % of control and 112 % of control
- T/C (dose: 32.0 mg/kg/injection, schedule: Q01DX009 (ip), vehicle: saline + alcohol): 99 % of control and 100 % of control and 107 % of control
- T/C (dose: 64.0 mg/kg/injection, schedule: Q01DX009 (ip), vehicle: saline + alcohol): 104 % of control and 105 % of control

SMILES: CN1C(=O)C/C(=C\N2CCCCC2)C1=O
- T/C [1]: 98 % of control
- T/C [2]: 102 % of control

SMILES: Cc1ncc(C(N)=S)c(N)n1
- T/C [7]: 103 % of control
- T/C [8]: 108 % of control
- T/C (dose: 200.0 mg/kg/injection, schedule: Q01DX009 (ip), vehicle: saline with Tween-80): 105 % of control

SMILES: CCOC(=O)N/C=C/C(C)=O
- T/C [4]: 98 % of control
- T/C [5]: 100 % of control
- T/C [6]: 106 % of control

SMILES: CC(=O)NC1CCCCC1C1CCC([N+](=O)[O-])CC1 (configuration not stated)
- T/C [1]: 101 % of control
- T/C [2]: 99 % of control
- T/C [3]: 99 % of control

SMILES: O=C(O)CSc1ccc(NC(=O)NC2CCCCC2)cc1
- T/C [9]: 100 % of control
- T/C [10]: 100 % of control
- T/C [11]: 100 % of control

SMILES: CC1Cc2ccccc2/C1=N/NC(N)=O (configuration not stated)
- T/C (dose: 50.0 mg/kg/injection, schedule: Q01DX005 (ip), vehicle: Klucel (hydroxypropylcellulose) (HPC)): 103 % of control
- T/C (dose: 100.0 mg/kg/injection, schedule: Q01DX005 (ip), vehicle: Klucel (hydroxypropylcellulose) (HPC)): 100 % of control
- T/C (dose: 200.0 mg/kg/injection, schedule: Q01DX005 (ip), vehicle: Klucel (hydroxypropylcellulose) (HPC)): 99 % of control

SMILES: CC(=O)Nc1ccc2nc3n(c(=O)c2c1)CCCC3
- T/C [12]: 101 % of control
- T/C [13]: 101 % of control
- T/C [14]: 100 % of control

SMILES: Cc1cc[n+]([O-])cc1
- T/C [15]: 105 % of control
- T/C (dose: 100.0 mg/kg/injection, schedule: Q01DX009 (ip), vehicle: saline): 106 % of control
- T/C (dose: 200.0 mg/kg/injection, schedule: Q01DX009 (ip), vehicle: saline): 97 % of control

SMILES: [I][Pt+2][I].[NH-]C(c1ccccc1)C([NH-])c1ccccc1 (configuration not stated)
- T/C (dose: 12.5 mg/kg/injection, schedule: Q04DX002 (ip), vehicle: saline with Tween-80): 102 % of control
- T/C (dose: 25.0 mg/kg/injection, schedule: Q04DX002 (ip), vehicle: saline with Tween-80): 109 % of control and 111 % of control
- T/C (dose: 50.0 mg/kg/injection, schedule: Q04DX002 (ip), vehicle: saline with Tween-80): 115 % of control

SMILES: O=c1c2ccccc2nc2ccc(Cl)nn12
- T/C [7]: 95 % of control
- T/C [8]: 100 % of control

SMILES: O=C(c1ccc(Cl)cc1)c1cnc2nc(-c3ccccc3)c(-c3ccccc3)nn12
- T/C (dose: 6.25 mg/kg/injection, schedule: Q01DX005 (ip), vehicle: saline with Tween-80): 97 % of control
- T/C (dose: 12.5 mg/kg/injection, schedule: Q01DX005 (ip), vehicle: saline with Tween-80): 98 % of control
- T/C (dose: 25.0 mg/kg/injection, schedule: Q01DX005 (ip), vehicle: saline with Tween-80): 97 % of control
- T/C [1]: 103 % of control
- T/C [2]: 113 % of control
- T/C [3]: 115 % of control

SMILES: CCSC(=S)S(=O)(=O)c1ccc(C)cc1
- T/C (dose: 12.5 mg/kg/injection, schedule: Q01DX009 (ip), vehicle: Klucel (hydroxypropylcellulose) (HPC)): 120 % of control
- T/C (dose: 25.0 mg/kg/injection, schedule: Q01DX009 (ip), vehicle: Klucel (hydroxypropylcellulose) (HPC)): 105 % of control
- T/C (dose: 50.0 mg/kg/injection, schedule: Q01DX009 (ip), vehicle: Klucel (hydroxypropylcellulose) (HPC)): 115 % of control and 123 % of control

SMILES: CC(=NC1CCCCC1)c1c(O)oc(C=Nc2ccccc2)c1O
- T/C [1]: 100 % of control
- T/C [2]: 105 % of control
- T/C [3]: 100 % of control

SMILES: Cn1c(=O)c2nsnc2n(C)c1=O
- T/C (dose: 50.0 mg/kg/injection, schedule: Q04DX002 (ip), vehicle: Klucel (hydroxypropylcellulose) (HPC)): 110 % of control
- T/C (dose: 100.0 mg/kg/injection, schedule: Q04DX002 (ip), vehicle: Klucel (hydroxypropylcellulose) (HPC)): 100 % of control and 110 % of control
- T/C (dose: 200.0 mg/kg/injection, schedule: Q04DX002 (ip), vehicle: Klucel (hydroxypropylcellulose) (HPC)): 107 % of control

SMILES: CC1(C)N=C(N)N=C(N)N1c1ccc(CCC(=O)Nc2ccc(S(=O)(=O)F)cc2)c(Cl)c1
- T/C (dose: 6.25 mg/kg/injection, schedule: Q01DX009 (ip), vehicle: saline): 157 % of control
- T/C [16]: 187 % of control
- T/C (dose: 12.5 mg/kg/injection, schedule: Q01DX009 (ip), vehicle: saline): 200 % of control
- T/C [17]: 170 % of control
- T/C (dose: 25.0 mg/kg/injection, schedule: Q01DX009 (ip), vehicle: saline): 209 % of control
- T/C [7]: 91 % of control
- T/C [15]: 190 % of control
- T/C [9]: 170 % of control
- T/C (dose: 132.0 mg/kg/injection, schedule: Q04DX003 (ip), vehicle: saline with Tween-80): 100 % of control
- T/C [10]: 162 % of control and 190 % of control
- T/C [11]: 95 % of control

SMILES: CCOC(=O)/C(C#N)=C/C=C1\C=CC=CN1C
- T/C [16]: 95 % of control
- T/C [17]: 86 % of control
- T/C [7]: 90 % of control

SMILES: CC(C)CC(N)C(=O)NCCC(=O)O (configuration not stated)
- T/C (dose: 50.0 mg/kg/injection, schedule: Q01DX005 (ip), vehicle: saline): 101 % of control
- T/C (dose: 100.0 mg/kg/injection, schedule: Q01DX005 (ip), vehicle: saline): 101 % of control
- T/C (dose: 200.0 mg/kg/injection, schedule: Q01DX005 (ip), vehicle: saline): 100 % of control

SMILES: Cc1ccc(S(=O)(=O)N(CCOc2c3occc3cc3ccc(=O)oc23)CCN(CCN(CCOc2c3occc3cc3ccc(=O)oc23)S(=O)(=O)c2ccc(C)cc2)S(=O)(=O)c2ccc(C)cc2)cc1
- T/C (dose: 100.0 mg/kg/injection, schedule: Q01DX001 (ip), vehicle: saline with Tween-80): 87 % of control
- T/C (dose: 200.0 mg/kg/injection, schedule: Q01DX001 (ip), vehicle: saline with Tween-80): 86 % of control

SMILES: CCCC(=O)C(CC)C(=O)CCC(=O)Nc1cccc([N+](=O)[O-])c1 (configuration not stated)
- T/C [4]: 101 % of control
- T/C [5]: 104 % of control
- T/C [6]: 109 % of control

SMILES: COC(=O)C1CC2c3ccccc3C1c1ccccc12 (configuration not stated)
- T/C [4]: 99 % of control
- T/C [5]: 99 % of control
- T/C [6]: 101 % of control

SMILES: Nc1nc(N)n(N)c(=S)n1
- T/C (dose: 50.0 mg/kg/injection, schedule: Q04DX003 (ip), vehicle: saline with Tween-80): 96 % of control
- T/C [9]: 106 % of control

SMILES: CC(C)(C)OC(=O)CS(=O)Nc1ccccc1O (configuration not stated)
- T/C (dose: 60.0 mg/kg/injection, schedule: Q01DX005 (ip), vehicle: Klucel (hydroxypropylcellulose) (HPC)): 105 % of control
- T/C (dose: 120.0 mg/kg/injection, schedule: Q01DX005 (ip), vehicle: Klucel (hydroxypropylcellulose) (HPC)): 108 % of control
- T/C (dose: 240.0 mg/kg/injection, schedule: Q01DX005 (ip), vehicle: Klucel (hydroxypropylcellulose) (HPC)): 97 % of control

SMILES: Cc1cccc(/C=N/Nc2cc(C)c3cccc(C)c3n2)n1
- T/C [1]: 100 % of control
- T/C [2]: 89 % of control
- T/C [3]: 88 % of control

SMILES: CCCC12C=C(OC)C(=O)C=C1OC(c1ccc3c(c1)OCO3)C2C (configuration not stated)
- T/C (dose: 8.75 mg/kg/injection, schedule: Q01DX005 (ip), vehicle: Klucel (hydroxypropylcellulose) (HPC)): 106 % of control
- T/C (dose: 17.5 mg/kg/injection, schedule: Q01DX005 (ip), vehicle: Klucel (hydroxypropylcellulose) (HPC)): 104 % of control
- T/C (dose: 35.0 mg/kg/injection, schedule: Q01DX005 (ip), vehicle: Klucel (hydroxypropylcellulose) (HPC)): 104 % of control

SMILES: CCN(CC)CCNc1cccc2c(C)cc(=O)[nH]c12
- T/C [1]: 103 % of control
- T/C [2]: 101 % of control

SMILES: O=S(=O)(c1ccccc1)C1CC=C(c2ccccc2)CNC1 (configuration not stated)
- T/C (dose: 50.0 mg/kg/injection, schedule: Q01DX001 (ip), vehicle: Klucel (hydroxypropylcellulose) (HPC)): 99 % of control
- T/C [12]: 98 % of control
- T/C [13]: 98 % of control
- T/C [14]: 100 % of control

SMILES: O=C(O)CCN1C(=O)CCC1=O
- T/C [9]: 100 % of control
- T/C [10]: 95 % of control
- T/C [11]: 91 % of control
